Target: T1, human PTH1 receptor (Homo sapiens, UniProt Q03431)
T1 sequence (Q03431 27-593): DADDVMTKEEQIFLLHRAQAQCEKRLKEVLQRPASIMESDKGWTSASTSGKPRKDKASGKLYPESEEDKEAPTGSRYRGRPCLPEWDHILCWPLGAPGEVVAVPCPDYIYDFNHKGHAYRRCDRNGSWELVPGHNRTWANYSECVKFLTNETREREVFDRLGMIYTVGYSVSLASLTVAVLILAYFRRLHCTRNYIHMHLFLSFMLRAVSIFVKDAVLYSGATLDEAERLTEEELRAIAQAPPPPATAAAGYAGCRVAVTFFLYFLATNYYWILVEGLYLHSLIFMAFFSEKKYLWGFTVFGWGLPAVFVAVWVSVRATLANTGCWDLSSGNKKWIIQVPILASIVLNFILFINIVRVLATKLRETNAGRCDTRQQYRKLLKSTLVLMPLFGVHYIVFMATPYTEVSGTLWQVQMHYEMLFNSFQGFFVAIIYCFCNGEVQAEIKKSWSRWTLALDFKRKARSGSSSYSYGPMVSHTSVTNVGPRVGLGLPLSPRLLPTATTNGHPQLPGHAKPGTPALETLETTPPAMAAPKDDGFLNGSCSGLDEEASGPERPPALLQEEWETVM
Test: In vitro cAMP signal activity in HKRK-B7 cells (LLC-PK1 cells overexpressing the human PTH1 receptor)
Type: cell-based

[1] = HKRK-B7 cells, compound at 1×10^−3 M, cAMP produced as percentage of that produced by hPTH(1-34) at 100 nM

Row | Structure (SMILES) | cAMP production activity (%) [1] [%] | cAMP production activity (%) (0.1 µM)
1 | [2H]C([2H])([2H])C1([2H])CCC(C2=NC3(CCN([S@TB18](=O)(=O)/C=C/c4c(C)cc(N(C)C(N)=O)cc4C)CC3)C(=O)N2)CC1 (stereo not shown) [Compound 1110, 1-(3,5-dimethyl-4-{(E)-2-[2-(4-[1,1,1-^2H3]methyl-[4-^2H1]cyclohexyl)-4-oxo-1,3,8-triaza-spiro[4.5]dec-1-ene-8-sulfonyl]-vinyl}-phenyl)-1-methyl-urea] | 92 | –
2 | Cc1cc(N(C)C(N)=O)cc(C)c1/C=C/[S@TB3](=O)(=O)N1CCC2(CC1)N=C(c1ccc(F)c(OC(F)(F)F)c1)NC2=O [Compound 1111, 1-(4-{(E)-2-[2-(4-fluoro-3-trifluoromethoxy-phenyl)-4-oxo-1,3,8-triaza-spiro[4.5]dec-1-ene-8-sulfonyl]-vinyl}-3,5-dimethyl-phenyl)-1-methyl-urea] | 79 | –
3 | Cc1cc(N(C)C(N)=O)cc(C)c1/C=C/[S@TB3](=O)(=O)N1CCC2(CC1)N=C(c1cccc(C(F)(F)C(F)(F)C(F)(F)C(F)(F)F)c1)NC2=O [Compound 1112, 1-(3,5-dimethyl-4-{(E)-2-[2-(3-nonafluorobutyl-phenyl)-4-oxo-1,3,8-triaza-spiro[4.5]dec-1-ene-8-sulfonyl]-vinyl}-phenyl)-1-methyl-urea] | – | 76
4 | Cc1cc(N(C)C(N)=O)cc(C)c1/C=C/[S@TB3](=O)(=O)N1CCC2(CC1)N=C(c1ccc(Cl)c(C(F)(F)F)c1)NC2=O [Compound 1113, 1-(4-{(E)-2-[2-(4-chloro-3-trifluoromethyl-phenyl)-4-oxo-1,3,8-triaza-spiro[4.5]dec-1-ene-8-sulfonyl]-vinyl}-3,5-dimethyl-phenyl)-1-methyl-urea] | 99 | –
5 | CCCc1ccc(-c2cccc(C3=NC4(CCN(S(=O)(=O)/C=C/c5c(C)cc(N(C)C(N)=O)cc5C)CC4)C(=O)N3)c2)cc1 [Compound 1114, 1-(3,5-Dimethyl-4-{(E)-2-[4-oxo-2-(4′-propyl-biphenyl-3-yl)-1,3,8-triaza-spiro[4.5]dec-1-ene-8-sulfonyl]-vinyl}-phenyl)-1-methyl-urea] | 95 | –
6 | CCOCCCCCCC1=NC2(CCN([S@TB18](=O)(=O)/C=C/c3c(C)cc(N(C)C(N)=O)cc3C)CC2)C(=O)N1 [Compound 1115, 1-(4-{(E)-2-[2-(6-ethoxy-hexyl)-4-oxo-1,3,8-triaza-spiro[4.5]dec-1-ene-8-sulfonyl]-vinyl}-3,5-dimethyl-phenyl)-1-methyl-urea] | 140 | –
7 | Cc1cc(N(C)C(N)=O)cc(C)c1/C=C/[S@TB3](=O)(=O)N1CCC2(CC1)N=C(c1cccc(CCCCCC(F)(F)F)c1)NC2=O [Compound 1116, 1-[3,5-dimethyl-4-((E)-2-{4-oxo-2-[3-(6,6,6-trifluoro-hexyl)-phenyl]-1,3,8-triaza-spiro[4.5]dec-1-ene-8-sulfonyl}-vinyl)-phenyl]-1-methyl-urea] | 106 | –
8 | Cc1cc(N(C)C(N)=O)cc(C)c1/C=C/[S@TB3](=O)(=O)N1CCC2(CC1)N=C(c1ccc(CCCCCC(F)(F)F)cc1)NC2=O [Compound 1117, 1-[3,5-dimethyl-4-((E)-2-{4-oxo-2-[4-(6,6,6-trifluoro-hexyl)-phenyl]-1,3,8-triaza-spiro[4.5]dec-1-ene-8-sulfonyl}-vinyl)-phenyl]-1-methyl-urea] | 88 | –
9 | Cc1cc(N(C)C(N)=O)cc(C)c1/C=C/[S@TB4](=O)(=O)N1CCC2(CC1)N=C(CCCCCCCCCCCF)NC2=O [Compound 1118, 1-(4-{(E)-2-[2-(11-fluoro-undecyl)-4-oxo-1,3,8-triaza-spiro[4.5]dec-1-ene-8-sulfonyl]-vinyl}-3,5-dimethyl-phenyl)-1-methyl-urea] | 79 | –
10 | C=CCCCCC1=NC2(CCN([S@TB17](=O)(=O)/C=C/c3c(C)cc(N(C)C(N)=O)cc3C)CC2)C(=O)N1 [Compound 1119, 1-{4-[(E)-2-(2-hex-5-enyl-4-oxo-1,3,8-triaza-spiro[4.5]dec-1-ene-8-sulfonyl)-vinyl]-3,5-dimethyl-phenyl}-1-methyl-urea] | 136 | –

Continued, in another order:

Row | cAMP production activity (%) [1] [%] | Structure (SMILES) | cAMP production activity (%) (0.1 µM)
11 | 124 | Cc1cc(N(C)C(N)=O)cc(C)c1/C=C/[S@TB3](=O)(=O)N1CCC2(CC1)N=C(CCCC/C=C/c1ccccc1)NC2=O [Compound 1120, 1-(3,5-dimethyl-4-{(E)-2-[4-oxo-2-((E)-6-phenyl-hex-5-enyl)-1,3,8-triaza-spiro[4.5]dec-1-ene-8-sulfonyl]-vinyl}-phenyl)-1-methyl-urea] | –
12 | 118 | Cc1cc(N(C)C(N)=O)cc(C)c1/C=C/[S@TB3](=O)(=O)N1CCC2(CC1)N=C(CCCCCCC/C=C/c1ccccc1)NC2=O [Compound 1121, 1-(3,5-dimethyl-4-{(E)-2-[4-oxo-2-((E)-9-phenyl-non-8-enyl)-1,3,8-triaza-spiro[4.5]dec-1-ene-8-sulfonyl]-vinyl}-phenyl)-1-methyl-urea] | –
13 | 150 | CCCSCCCCCC1=NC2(CCN([S@TB17](=O)(=O)/C=C/c3c(C)cc(N(C)C(N)=O)cc3C)CC2)C(=O)N1 [Compound 1122, 1-(3,5-dimethyl-4-{(E)-2-[4-oxo-2-(5-propylsulfanyl-pentyl)-1,3,8-triaza-spiro[4.5]dec-1-ene-8-sulfonyl]-vinyl}-phenyl)-1-methyl-urea] | –
14 | 122 | COCCCCCCCC1=NC2(CCN([S@TB18](=O)(=O)/C=C/c3c(C)cc(N(C)C(N)=O)cc3C)CC2)C(=O)N1 [Compound 1123, 1-(4-{(E)-2-[2-(7-methoxy-heptyl)-4-oxo-1,3,8-triaza-spiro[4.5]dec-1-ene-8-sulfonyl]-vinyl}-3,5-dimethyl-phenyl)-1-methyl-urea] | –
15 | 119 | CCCOCCCCCC1=NC2(CCN([S@TB18](=O)(=O)/C=C/c3c(C)cc(N(C)C(N)=O)cc3C)CC2)C(=O)N1 [Compound 1124, 1-(3,5-dimethyl-4-{(E)-2-[4-oxo-2-(5-propoxy-pentyl)-1,3,8-triaza-spiro[4.5]dec-1-ene-8-sulfonyl]-vinyl}-phenyl)-1-methyl-urea] | –
16 | 93 | Cc1cc(N(C)C(N)=O)cc(C)c1/C=C/[S@TB4](=O)(=O)N1CCC2(CC1)N=C(CCCCCCCCCCC(F)F)NC2=O [Compound 1125, 1-(4-{(E)-2-[2-(11,11-difluoro-undecyl)-4-oxo-1,3,8-triaza-spiro[4.5]dec-1-ene-8-sulfonyl]-vinyl}-3,5-dimethyl-phenyl)-1-methyl-urea] | –
17 | 106 | CCCCCCC(CCC)CCC1=NC2(CCN([S@TB18](=O)(=O)/C=C/c3c(C)cc(N(C)C(N)=O)cc3C)CC2)C(=O)N1 (stereo not shown) [Compound 1126, 1-(3,5-dimethyl-4-{(E)-2-[4-oxo-2-(3-propyl-nonyl)-1,3,8-triaza-spiro[4.5]dec-1-ene-8-sulfonyl]-vinyl}-phenyl)-1-methyl-urea] | –
18 | 91 | CCCc1cc2ccc(C3=NC4(CCN([S@TB18](=O)(=O)/C=C/c5c(C)cc(N(C)C(N)=O)cc5C)CC4)C(=O)N3)cc2o1 [Compound 1127, 1-(3,5-dimethyl-4-{(E)-2-[4-oxo-2-(2-propyl-benzofuran-6-yl)-1,3,8-triaza-spiro[4.5]dec-1-ene-8-sulfonyl]-vinyl}-phenyl)-1-methyl-urea] | –
19 | 119 | CCCCCc1ccc(C2=NC3(CCN([S@TB18](=O)(=O)/C=C/c4c(C)cc(N(C)C(N)=O)cc4C)CC3)C(=O)N2)cc1OC [Compound 1128, 1-(4-{(E)-2-[2-(3-methoxy-4-pentyl-phenyl)-4-oxo-1,3,8-triaza-spiro[4.5]dec-1-ene-8-sulfonyl]-vinyl}-3,5-dimethyl-phenyl)-1-methyl-urea] | –

Reference: patent publication US9169254B2, “Spiroimidazolone derivative” (Chugai Seiyaku Kabushiki Kaisha, priority 2009, dated 2015)
